The values that follow come from the METLIN SMRT retention time set (Domingo-Almenara et al. 2019).

The structures appear in SMILES notation.

This data set in a line: gradient 5% acetonitrile 3 min, to 50% in 2 min, to 85% in 15 min, held 3 min, 100 µL/min. The conditions noted are these: column: Zorbax Extend-C18 2.1 x 50 mm; eluents: water / acetonitrile, 0.1% formic acid. The method in brief: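 Each retention time is based on an adduct peak selected computationally and verified by manual inspection. Measurements used HPLC–quadrupole time-of-flight mass spectrometry in positive and negative ionization mode on mixtures of ~100 pure standards. Chromatography ran on a Zorbax Extend-C18 column (2.1 × 50 mm, 1.8 μm) at 100 μL/min with water and acetonitrile, each containing 0.1% formic acid, and dead and dwell volumes of 40 μL and 900 μL.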
Turning to `Cc1cc2nn(CC(=O)Nc3ccc(F)cc3Cl)c(=O)n2c(Nc2ccccc2)n1`, the RP-LC retention time worked out at 1030 s.
With `COc1ccc(-n2c(=O)n(C)c(=O)c3cc(C(=O)Nc4ccc(F)c(F)c4)cnc32)cc1`, the RP-LC retention time is 948 s.
Compound `CCC(C)n1[nH]c(=O)c2c1NC(=O)CSC2c1ccc(OC)c(OC)c1` (centres undefined) returned an RP-LC retention time of 654 s.
As for `COc1ccc(Cl)cc1NC(=O)NC1CCN(c2ccccc2)C1=O` (centres undefined), the figure is 873 s; as for `Cc1sc(-c2noc(C3CCC3)n2)cc1S(=O)(=O)N1CCC(C(=O)N2CCCCCC2)CC1`, 1180 s.
The same measure for `Cc1c(N2CCC(C(=O)NCC3CCCO3)CC2)c(=O)n(C)c(=O)n1-c1ccccc1` (centres undefined): 691 s.
The same measure for `Fc1cccc(CN2CCc3nc(N4CCOCC4)ncc3C2)c1`: 604 s; for `Cc1ccccc1-c1ccc(N2CCC(C(=O)Nc3cccnc3)CC2)nn1`: 546 s; for `Cc1cc(C)c(S(=O)(=O)NCCc2cn(CC(C)C)c3ncccc23)cc1C`: 1040 s.
For the compound `CN(C)CCCNC(=O)C(=O)c1c(-c2ccccc2)cc2ccccn12`, the RP-LC retention time is 620 s.
As for `COc1ccc(OCc2ccc(C(=O)Nc3cc4c(cc3C(C)=O)OCO4)o2)cc1`, the figure is 1060 s.
As for `CCn1cc(CN2CCC(C(=O)NCCCN3CCOCC3)CC2)c2cc(Cl)ccc21`, the figure is 585 s.
As for `O=C(CN1C(=O)C2CCCCN2C(=O)c2ccccc21)NCCN1CCCCCC1` (centres undefined), the figure is 590 s; as for `CCOC(=O)C1CCN(C(=O)CN2C(=O)COc3ccc(C(=O)N(C)C)cc32)CC1`, 648 s; as for `Cc1nc(-c2ccccc2Cl)sc1C(=O)NCCc1c[nH]c2ccccc12`, 1020 s.
Consider `CC1CCN(c2cc(-c3noc(C(=O)NCCN4CCOCC4)n3)ccn2)CC1`, for which the RP-LC retention time was 572 s.
The same measure for `O=C(NC1CC1)C1CCN(c2nc3ccc(-c4cccs4)nc3s2)CC1`: 809 s; for `CC(C)Cc1ccc(S(=O)(=O)N2CCC3(CC2)NCCN=C3NCc2ccccc2)cc1`: 856 s.
As for `CN1CCc2nnc(C3CCN(C(=O)Nc4ccc(Cl)cc4C(F)(F)F)C3)n2CC1` (centres undefined), the figure is 610 s; as for `CCc1noc(NC(C)=O)c1-c1ccc(OC)c(S(=O)(=O)N2CCCCC2)c1`, 758 s; as for `O=C(CCC1CCCC1)Nc1nc(-c2ccccc2)cs1`, 1180 s.
As for `O=C(C1=CN(c2ccc3c(c2)CCC3)c2ccccc2S1(=O)=O)N1CCOCC1`, the figure is 850 s.
On to `COc1ccc(NC(=O)C2CCN(c3cnc4nc(C)c(C)nc4c3)CC2)c(C)c1`, for which the RP-LC retention time was 683 s.
Regarding `CCNc1cc(N2CCCC(CCC(=O)NC(C)c3cn(C)nc3C)C2)ncn1` (centres undefined), the RP-LC retention time is 592 s.
The same measure for `O=C(c1cn2ccccc2n1)N1CCN(c2ccccc2F)CC1`: 652 s; for `CCN1CCC(N(Cc2ccc3c(c2)OCO3)C(=O)Nc2cc(Cl)ccc2C(=O)OC)CC1`: 774 s.
The same measure for `O=C(NCc1ccc(F)cc1F)c1csc(C(=O)N2CCCC2)n1`: 795 s; for `Cc1ccc(C(=O)Nc2ccc(CN3CCN(C)CC3)c(C(F)(F)F)c2)cc1C#Cc1cnc2cccnn12`: 812 s.
For `CCN1C(=O)c2c(C(=O)NCc3cccc(F)c3)ncn2CC1(C)C(=O)NC1CCCC1` (centres undefined), the RP-LC retention time was 762 s.
As for `Cc1cc(C)cc(C(=O)N2CCN(c3nc(CN4CCOCC4)cs3)CC2)c1`, the figure is 647 s; as for `Cc1ccccc1C(=O)N1C(C(=O)NCC(C)C)COC12CCN(C(=O)C(C)(C)C)CC2` (centres undefined), 782 s.
As for `Cc1cc(N2CCCC2)n2nc(CN3CCN(c4ccccn4)CC3)nc2n1`, the figure is 553 s.
As for `CCN(CC)S(=O)(=O)c1ccc(C)c(-c2nnc(-c3ccccc3)o2)c1`, the figure is 1090 s; as for `CCN1C(=O)c2cccnc2Sc2cc(CNC(=O)c3ccc(OC)c(F)c3)ccc21`, 763 s.
`O=C(CN1C(=O)CCS(=O)(=O)c2ccccc21)Nc1cccc(C(F)(F)F)c1` returned an RP-LC retention time of 849 s.
On to `CSc1ccc(CCNC(=O)C2CCCN(C(=O)c3cc(C)cc(C)c3)C2)cc1` (centres undefined), for which the RP-LC retention time was 936 s.
For `O=C(Nc1ccc2c(c1)OCO2)C1(c2ccc(F)cc2)CC1`, the RP-LC retention time was found to be 877 s.
`Cc1ccc2nc(C(=O)NCc3cccc(Cl)c3)cn2c1` displayed an RP-LC retention time of 718 s.
As for `Cc1ccc(CNC(=O)C2CCCN(c3nc4ncccc4n4cccc34)C2)cc1` (centres undefined), the figure is 640 s.
The compound `O=S(=O)(Nc1ccc(F)cc1)c1ccc(-c2nnc(C3CCC3)o2)o1` had an RP-LC retention time of 888 s.
With `CCc1ccc(-c2nc(C3CC(=O)N(c4ccc(Cl)cc4)C3)no2)cc1` (centres undefined), the RP-LC retention time was 1020 s.
As for `COc1ccc(S(=O)(=O)NCCCCN2CCOC(c3ccccc3)C2)c(C)c1` (centres undefined), the figure is 600 s; as for `Cc1ccc(F)c(NS(=O)(=O)c2ccc(-c3nnc(C4CCC4)o3)o2)c1`, 924 s.
The compound `Cc1nc(-c2cc(S(=O)(=O)NCC(=O)NC3CCCC3)c(C)s2)no1` had an RP-LC retention time of 774 s.
The compound `Cc1ccccc1-c1nc2cnccn2c1NCCC(=O)NCC(C)C` registered an RP-LC retention time of 636 s.
The same measure for `Cc1ccccc1-c1nc(-c2ccc3c(c2)nnn3CCN2CCOCC2)no1`: 706 s.
In turn, `COc1ccc(NC(=O)N2CCC(c3nc(C(=O)N(C)C)c(C)o3)CC2)cc1OC` gave an RP-LC retention time of 635 s.
Take `CC(=O)c1cccc(NC(=O)c2sc3ccccc3c2Cl)c1`: the RP-LC retention time came to 988 s.
As for `CC(C)CNC(=O)c1ccc(CN2CCN(Cc3ccccc3)C(=O)C2=O)cc1`, the figure is 721 s; as for `CN(C)c1ccc(-c2nc(-c3cn(Cc4cccc(F)c4)nn3)no2)cc1`, 1020 s; as for `CC(=O)c1ccc(NS(C)(=O)=O)c(Oc2ccc(F)cc2F)c1`, 954 s.
`COc1ccc(NC(=O)Cn2c(=O)n(-c3ccc(F)cc3)c(=O)c3c2cc(C)n3C)cc1` registered an RP-LC retention time of 812 s.
As for `CN(C)CCNC(=O)C1CCN(c2nn3cc(-c4ccc(F)cc4)nc3s2)CC1`, the RP-LC retention time amounted to 636 s.
The compound `CCC(CC)NC(=O)CCC1CCN(c2cc(NC3CC3)ncn2)CC1` had an RP-LC retention time of 654 s.
The same measure for `CCOc1ccc(-n2c(CN3CCN(C(=O)NCC(C)C)CC3)nc3cccnc32)cc1`: 654 s.
The same measure for `COc1cc(=O)n2c(c1C(=O)NC1CCCCCCC1)CCCC2`: 734 s; for `CCc1ccc(C(=O)N2CCC3(C2)C(=O)N(C)c2ccccc23)cc1` (centres undefined): 861 s; for `Cc1cc2nn(CC(=O)NCc3ccccc3)c(=O)n2c(-c2ccc(F)cc2)n1`: 781 s.
The same measure for `O=C(CCCn1nnc2cc(S(=O)(=O)N3CCCC3)ccc21)N1CCCc2ccccc21`: 873 s; for `CCOC(=O)c1cc(C2CC2)nc2c1c(=O)n(CCc1c(C)noc1C)c(=O)n2C`: 980 s.
With `CCCn1ccc2sc(C)c(C(=O)O)c2c1=O`, the RP-LC retention time is 774 s.
`CC(NC(=O)C1CCN(c2cnc(N3CCCC3)nc2)CC1)c1ccc(F)cc1` (centres undefined) returned an RP-LC retention time of 699 s.
The same measure for `CSc1ccc(-c2noc(Cn3c(=O)n(CC4CCCO4)c(=O)c4ccccc43)n2)cc1` (centres undefined): 1070 s.
The same measure for `Cn1c(=O)c(N2CCN(S(=O)(=O)c3cccc(Cl)c3)CC2)nc2ccncc21`: 677 s.
Take `CCc1ccc(S(=O)(=O)N2CCCC(Cn3cnc4cccnc43)C2)cc1` (centres undefined): the RP-LC retention time worked out at 774 s.
`CC1(C)SC2C(NC(=O)[C@H](NC(=O)N3CCNC3=O)c3ccccc3)C(=O)N2C1C(=O)O` (some centres undefined) yielded an RP-LC retention time of 709 s.
The same measure for `CCn1c(=O)c2c(cc(C)n2C)n(CC(=O)Nc2ccc(OC)c(Cl)c2)c1=O`: 794 s; for `O=C(Cn1c(=O)c2cc(-c3cccs3)nn2c2ncccc21)NCCc1ccccc1`: 829 s.
The same measure for `CC1=C(C(=O)N2CCOCC2)C(c2ccc(F)c(Br)c2)C2=C(CCCC2=O)N1` (centres undefined): 659 s; for `CN(C)c1ccc(NC(=O)c2c(O)c3ccccc3n(-c3ccccc3)c2=O)cc1`: 1180 s; for `CC(C)c1nc2cc3c(cc2n1CC(=O)Nc1ccccc1)OCCO3`: 674 s.
As for `O=C(NCc1nc(-c2cccc(-c3csc(C4CC4)n3)c2)no1)c1ccccc1`, the figure is 1030 s; as for `CCCN1C(=O)c2cccnc2Sc2cc(C(=O)N3CCCCC3)ccc21`, 772 s.
`COc1ccc(S(=O)(=O)N2CCCC(C(=O)Nc3cccc(SC)c3)C2)cc1Cl` (centres undefined) registered an RP-LC retention time of 1060 s.
As for `O=C(c1n[nH]c2ccccc12)N1CCC[C@H]1c1nc(-c2ccccc2)n[nH]1`, the figure is 683 s; as for `CCOC(=O)C1CCc2sc(NC(=O)C3COCC(=O)N3Cc3ccccc3)nc21` (centres undefined), 730 s; as for `CCc1ccccc1NC(=O)N1CCCC(Cn2cnc3cccnc32)C1` (centres undefined), 719 s.
The same measure for `Cc1ccccc1CNC(=O)CCc1conc1-c1ccc(F)cc1`: 922 s; for `CCOC(=O)/C=C/c1c(C)[nH]c(=O)[nH]c1=O`: 610 s.
